Entries after “also recorded” stand apart in the source; their conditions may differ.
Tests used:
[1] = tested on: primary cortical astrocyte cultures; assay: Astrocyte morphology studies (thrombin-induced shape change, stellate vs flat); format: cell-based, rat; details: for effect on morphological response of astrocytes to thrombin / fold greater number of astrocytes remaining stellate after thrombin: 10 pM thrombin 2 h; for fold greater number of astrocytes remaining stellate after thrombin: versus thrombin alone
Experimental: Coimmunoprecipitation. Primary cortical astrocyte cultures were prepared from 1- to 2-day-old Sprague-Dawley rats as described in Donovan, et al., (1997) J. Neurosci. 17: 5316-5326. Astrocytes were solubilized and incubated with control antibody (rabbit IgG) or anti-PAR-1 antibody overnight at 4° C. in the presence of protein A-Sepharose. Immunoprecipitation products were either subjected to CKB activity assays or separated by SDS/PAGE and analyzed on immunoblots with anti-CKB antibodies.
(§1) Astrocyte Morphology Studies. Oligonucleotides based on a CKB antisense sequence (GUGUCUGCAACAGCUUAGC-CAUCAG), a control reverse sequence ([…]), and an identical antisense sequence rendered insensitive to RNaseH were purchased from Sequitur (Natick, Mass.) and transformed into primary astrocyte cultures with Lipofectin (GIBCO/BRL) for 1 h. After 18 h, cells were differentiated in 1.5 mM dibutyryl cAMP for 2 h. A total of 10 pM thrombin was added for 2 h for a maximal response, and the morphology of approximately 200 cells was examined under phase-contrast micrography and scored as either stellate or flat. Antisense knockdown of CKB was confirmed by immunoblot analysis. Morphology assays were also performed after a 4-h treatment with 50 mM cyclocreatine.

CKB = CKB immunoblot after antisense knockdown; format: cell-based, rat; details: astrocytes, 18 h after transfection
Experimental: as §1

astrocytes [2] = assay: Total cellular ATP levels and cell viability; format: cell-based, rat; details: data not shown
Experimental: Materials. The protein-protein interaction screen was performed by using the Matchmaker GAL4 two-hybrid system and a rat brain cDNA library (CLONTECH). Rabbit anti-PAR-1 antibody was a gift from M. Runge (University of Texas Medical Branch, Galveston), anti-CKB antibodies were obtained from Chemicon, and anti-RhoA was from Santa Cruz Biotechnology. CKB activity was measured with CK 520 Sigma. ATP levels were measured with the bioluminescent somatic cell assay (Sigma FL-ASC). Thrombin and purified CKB were purchased from Calbiochem, and cyclocreatine was purchased from Sigma. Site-directed mutagenesis was performed with Quick Change (Stratagene). G. Molloy (Delaware University) graciously provided the CKB plasmid, and T. Ma (Baylor College, Houston) provided the dominant negative CKB mutant. Statistical analysis was carried out by using two-way ANOVA.

Ad12HER10 retinoblasts = assay: Thrombin/PAR-1 morphological response in retinoblasts; format: cell-based, human; details: Ad12HER10, data not shown
Experimental: Dominant Negative CKB Studies. The dominant negative CKB mutant C283S, described in Lin, et al., (1994) Biochim. Biophys. Acta 1206: 97-104, was cloned into the pIRES-EGFP vector (CLONTECH) and transfected for 6 h with Novafector (VennNova, LCC) into Ad12HER10 retinoblasts seeded into Lab-Tek II slides (Nunc). After 18 h, cells were differentiated with 2 mM dibutyryl cAMP in serum-free medium for 6 h. After addition of thrombin (160 nM) for 2 h, transfected cells (20-30%) were identified by fluorescence micrography, and the cell morphology of approximately 100 transfected cells was examined with phase-contrast illumination and scored blind to treatment as either refractile or flat.

[3] = tested on: human umbilical vein endothelial cells (HUVEC); assay: Thrombin-induced cell rounding / contraction of HUVEC; format: cell-based; details: for % of cells round after thrombin: thrombin 10 pM 20 minutes (control 2%, thrombin alone 80%); for effect on thrombin-induced cell rounding / contraction: thrombin 10 pM 20 minutes
Experimental: Primary cultures of pooled Human umbilical vein endothelial cells (HUVEC) cells were purchased from Clonetics (Walkersville, Md.) and cultured according to the manufacturer's protocol. About 2500 cells/cm^2 were cultured in Endothelial Cell Growth Medium BulletKit-2 (Clonetics, Walkersville, Md.) on collagen (Gibco, Grand Island, N.Y.) coated RS Lab Tek II slides for 5 days until confluent. Cells were then cultured in low serum (0.5%) medium overnight. Cells were treated with 50 mM cyclocreatine for 3 to 4 hours, or with […] ROCK (Rho Kinase) inhibitor Y-27632 for 30 minutes, as described in Maekawa et al., (1999) Science 285: 895-8, hereby incorporated by reference in its entirety.
Thrombin was delivered at a final concentration of 10 pM for 20 minutes to endothelial cells. F-actin was stained with Alexa 594 phalloidin (Molecular Probes). HUVECs were examined under fluorescence and phase contrast micrography, and cells were scored as either round or flat.

astrocytes [4] = assay: Intracellular calcium assay (Fluo-3, FLIPR) in astrocytes after thrombin; format: cell-based, rat; details: thrombin 10 pM, cyclocreatine 50 mM 4 h or U-73122 1 μM 10 min
Experimental: Intracellular Calcium Assay. Astrocytes were treated with or without 50 mM cyclocreatine for 4 h. Cell medium was decanted and replaced with Fluo-3 AM (Molecular Probes) for 1 h. Some wells received 1 μM U-73122 (Biomol, Plymouth Meeting, Pa.) for 10 min before 10 pM thrombin and 10 mM EDTA injection. The relative intracellular calcium levels were monitored at […] for 210 sec in 4-8 identically treated wells by using a Fluorometric Imaging Plate Reader (Molecular Devices).

platelets = assay: Thrombin-induced platelet aggregation in platelet-rich plasma (Chrono-Log aggregometer); format: cell-based, human; details: 30 min preincubation, 1 nM thrombin, PRP
Experimental: Blood from healthy volunteers was collected in an anti-coagulant citrate solution according to standard protocols. The whole blood/citrate solution was centrifuged at 200×g for 10 minutes to obtain platelet-rich plasma (PRP). The platelet count, as determined by Coulter Counter, was 2.88×10^8/mL. Aliquots (0.5 mL each) of the PRP were incubated with and without various concentrations of cyclocreatine (0 to 10 mM final concentration) for 30 minutes at room temperature. The aggregation assay was then carried out in the presence of thrombin (10 ul of thrombin was added to each aliquot, to a final concentration of 1 nM) with stirring at 37° C. using a Chrono-Log Whole Blood Aggregometer. (Chronolog Corp., Havertown, Pa.) Absorbance was measured at 500 nm.

RhoA = RhoA activation and translocation assay; format: cell-based, rat; details: astrocytes, 50 mM cyclocreatine 4 h
Experimental: RhoA Activation and Translocation Assay. Active RhoA levels were measured in primary rat astrocytes as described in Ren, et al., (1999) EMBO J. 18: 578-585. Astrocytes received a 4-h 50 mM cyclocreatine treatment before the thrombin (10 pM) addition for 10 min. Cell lysates were incubated with GST-Rhotekin binding domain (20-30 μg) for 45 min, washed, and immunoprobed with anti-RhoA antibody. For membrane RhoA, crude membrane fractions were prepared as described in Donovan, et al., (1997) J. Neurosci. 17: 5316-5326. Fifteen micrograms of membrane protein fractions was separated by SDS/PAGE and immunoblotted with anti-RhoA antibody.

[5] = tested on: human umbilical vein endothelial cells (HUVEC); assay: Intracellular calcium assay (Fluo-3, FLIPR) in HUVEC after thrombin; format: cell-based
Experimental: To assay for intracellular calcium levels, cell media was decanted and replaced with Fluo-3 AM (Molecular Probes) in […] of loading buffer with 1% Fetal Calf Serum (FCS) for 1 hour. Cells were rinsed with loading buffer and the 96-well plate was placed into a Fluorometric Imaging Plate Reader (FLIPR, Molecular Devices, Sunnyvale, Calif.). The relative intracellular calcium levels were monitored at […] for 210 seconds in 4 to 8 identically treated wells. To monitor calcium release from intracellular stores thrombin was delivered in buffer containing 10 mM EDTA. Various phospholipase C inhibitors were applied as well.

CKB antisense ODNs: antisense oligonucleotide GUGUCUGCAACAGCUUAGC-CAUCAG directed toward the 3′ end of the CKB mRNA (Sequitur) (antisense GUGUCUGCAACAGCUUAGCCAUCAG; chemistry not given here)
effect on morphological response of astrocytes to thrombin [1]: no longer responded
fold greater number of astrocytes remaining stellate after thrombin [1]: > 3 fold
effect on astrocyte morphology without thrombin ([1]; treatment alone): without affecting
CKB expression level (Western blot) (CKB): significantly lower levels
effect on cell viability (astrocytes [2]): did not affect
effect on total cellular ATP levels (astrocytes [2]): did not affect

NC1=NCCN1CC(=O)O [cyclocreatine]
effect on morphological response of astrocytes to thrombin [1]: dose-dependent decrease
fold greater number of astrocytes remaining stellate after thrombin [1]: ≤ 4 fold
effect on morphological response of astrocytes to thrombin ([1]; listed as Cyclocreatine): protects
effect on cell viability (astrocytes [2]): no effect
effect on total cellular ATP levels (astrocytes [2]): no effect
effect on thrombin/PAR-1 morphological response in retinoblasts (Ad12HER10 retinoblasts): blocked
% of cells round after thrombin ([3]; maximum dose of cyclocreatine (50 mM, 3 to 4 hours)): 20%
effect on thrombin-induced cell rounding / contraction [3]: inhibited; also recorded: dose-dependent protective effect; also recorded: protected
effect on thrombin-induced peak intracellular calcium (astrocytes [4]): only a minor decline
% Aggregation of Platelets (platelets; 1 mM cyclocreatine): 88%
% Aggregation of Platelets (platelets; 5 mM cyclocreatine): 11%
% Aggregation of Platelets (platelets; 10 mM cyclocreatine): 0%
RhoA translocation to the membrane after thrombin treatment (RhoA; thrombin 10 pM): almost no translocation
GTP-RhoA after thrombin treatment (GST-rhotekin pull-down) (RhoA; thrombin 10 pM 10 min): significantly reduced
effect on thrombin-induced calcium response (peak fluorescence) [5]: almost no effect; also recorded: no significant changes

C/C=C(/C)C(=O)O[C@H]1C(C)=C2[C@H]([C@@H]1OC(=O)CCCCCCC)[C@@](C)(OC(C)=O)C[C@H](OC(=O)CCC)[C@@]1(O)[C@H]2OC(=O)[C@@]1(C)O [thapsigargin]
effect on thrombin-induced calcium response (peak fluorescence) [5]: completely abolished

C[C@@H](N)[C@H]1CC[C@H](C(=O)Nc2ccncc2)CC1 [ROCK (Rho Kinase) inhibitor, Y-27632, reference compound]
% of cells round after thrombin ([3]; 10 mM Y-27632 for 30 minutes): 2%
effect on thrombin-induced cell rounding / contraction [3]: completely blocked

CCCCCCCCCCCCCCCCCCOCC(COP(=O)([O-])OCC[N+](C)(C)C)OC (centres unmarked) [ET18-OCH3]
effect on thrombin-induced calcium response (peak fluorescence) [5]: completely abolished

COc1ccc2c(c1)CC[C@@H]1[C@@H]2CC[C@]2(C)[C@@H](NCCCCCCN3C(=O)C=CC3=O)CC[C@@H]12 [U-73122, reference compound]
effect on thrombin-induced peak intracellular calcium (astrocytes [4]): inhibited
effect on thrombin-induced calcium response (peak fluorescence) [5]: completely abolished

reverse sequence ODN (Rev): control reverse sequence oligonucleotide GACUACCGAUUCGACAACGUCUGUG (chemistry not given here) [reference compound]
effect on morphological response of astrocytes to thrombin [1]: Neither a reverse sequence ODN (Rev) nor the ODN rendered insensitive to RNaseH had any significant effect
CKB expression level (Western blot) (CKB): Neither a reverse sequence ODN (Rev) nor the ODN rendered insensitive to RNaseH had any significant effect

Source: patent US6444695B1, “Inhibition of thrombin-induced platelet aggregation by creatine kinase inhibitors” (The Regents of the University of California, priority 2000, dated 2002)
